The OligoGym collection
“And” between values parts separate entries of the source, which are not always exact repeats. Equal entries are not always repeated. After the bases stand the sugars from the 5' end (letter, count) and the backbone: PS all phosphorothioate, else s phosphorothioate and o phosphodiester by linkage. Methylation of C is not given here. k = constrained ethyl (cEt); d = 2'-deoxy (DNA)

Target: MALAT1
Conditions: ASO, A431, 0.005 µM

| Sequence | target mRNA inhibition |
| --- | --- |
| AAAAAAGGCTTAGCGC (sugars k3 d10 k3, PS) | 0% |
| AAAAACTTATCTGCGG (sugars k3 d10 k3, PS) | 49% |
| AAAACGAATTCAGGGT (sugars k3 d10 k3, PS) | 25% |
| AAAACTCCCCCCCGCC (sugars k3 d10 k3, PS) | -4% |
| AAAAGCTTGTTCACCT (sugars k3 d10 k3, PS) | 21% |
| AAACGAATTCAGGGTG (sugars k3 d10 k3, PS) | 23% |
| AAACGGGTCATCAAAC (sugars k3 d10 k3, PS) | 19% |
| AAACTAAATCATTGGG (sugars k3 d10 k3, PS) | 43% |
| AAACTTGCCATCTACT (sugars k3 d10 k3, PS) | -4% |
| AAAGACCTCGACACCA (sugars k3 d10 k3, PS) | 15% |
| AAAGATTTGAGCTGCA (sugars k3 d10 k3, PS) | -4% |
| AAAGCGAGTTCAAGTG (sugars k3 d10 k3, PS) | -12% |
| AAATAAGCACTTATCC (sugars k3 d10 k3, PS) | 18% |
| AAATCGCCATGGAAAG (sugars k3 d10 k3, PS) | 1% |
| AAATGGTAGATTCCGT (sugars k3 d10 k3, PS) | 60% and 62% and 50% |
| AACAATCACTACTCCA (sugars k3 d10 k3, PS) | 26% |
| AACAGCACAGCGGTAC (sugars k3 d10 k3, PS) | 2% |
| AACATAGTTCAACCCA (sugars k3 d10 k3, PS) | 12% |
| AACATTGGCACACAGC (sugars k3 d10 k3, PS) | 54% |

| Sequence | target mRNA inhibition |
| --- | --- |
| AACCAGGAGTGCCAAC (sugars k3 d10 k3, PS) | -23% |
| AACCCCCAGTTCAATA (sugars k3 d10 k3, PS) | 20% |
| AACCTGGGCTCCCGGA (sugars k3 d10 k3, PS) | 30% |
| AACTCCCCCATTATAT (sugars k3 d10 k3, PS) | -1% |
| AACTCCCCCCCGCCTC (sugars k3 d10 k3, PS) | 6% |
| AACTCGCATCACCGGA (sugars k3 d10 k3, PS) | 21% |
| AACTGCTTGCAGTCCT (sugars k3 d10 k3, PS) | 5% |
| AACTGGGAATACTCTT (sugars k3 d10 k3, PS) | 22% |
| AACTTATCTGCGGTTT (sugars k3 d10 k3, PS) | 6% |
| AACTTCAACATTTGGC (sugars k3 d10 k3, PS) | 56% |
| AAGAGATACCTGTCTG (sugars k3 d10 k3, PS) | 22% |
| AAGAGCCAAGCACTCA (sugars k3 d10 k3, PS) | 12% |
| AAGATAGCAGCACAAC (sugars k3 d10 k3, PS) | 12% |
| AAGATATTGTGCTGTT (sugars k3 d10 k3, PS) | 13% |
| AAGCACTCATATGCAA (sugars k3 d10 k3, PS) | -2% |
| AAGCCCTCTCAGCCAC (sugars k3 d10 k3, PS) | 38% |
| AAGGATGTATATAGTT (sugars k3 d10 k3, PS) | 21% |
| AAGGCTCGATGGAAAA (sugars k3 d10 k3, PS) | 7% |
| AAGGCTTCAGTCCCCT (sugars k3 d10 k3, PS) | 14% |

| Sequence | target mRNA inhibition |
| --- | --- |
| AAGTAAGCCCCACCCC (sugars k3 d10 k3, PS) | 37% |
| AAGTAGTTCTTCGGTT (sugars k3 d10 k3, PS) | 10% |
| AAGTCAAGCTCCTGAC (sugars k3 d10 k3, PS) | 4% |
| AAGTTGGTAATTACTC (sugars k3 d10 k3, PS) | 22% |
| AAGTTTTCAGCAGTAG (sugars k3 d10 k3, PS) | 8% |
| AATACTCTTCCAAGGA (sugars k3 d10 k3, PS) | 15% |
| AATAGCAGCGGGATCA (sugars k3 d10 k3, PS) | 34% |
| AATATTTGCCCCTCCC (sugars k3 d10 k3, PS) | 15% |
| AATCGGAGCAGCACGG (sugars k3 d10 k3, PS) | 26% |
| AATGCATTCTAATAGC (sugars k3 d10 k3, PS) | 17% |
| AATGGCGGACTTTCTC (sugars k3 d10 k3, PS) | 0% |
| AATTAAATTGATGGGC (sugars k3 d10 k3, PS) | 17% |
| AATTCACCAAGGAGCT (sugars k3 d10 k3, PS) | 35% |
| AATTGTAGTTAATGTC (sugars k3 d10 k3, PS) | 36% |
| AATTTATAGACCCCTG (sugars k3 d10 k3, PS) | 4% |
| AATTTCCTTAGTTGGC (sugars k3 d10 k3, PS) | 68% and 93% |
| AATTTTGAGTATGCTG (sugars k3 d10 k3, PS) | 54% and 71% |
| ACAACATATTGCCGAC (sugars k3 d10 k3, PS) | 10% |
